The nature of series [1]: Dynamic light scattering (colloidal aggregation). In kind it is physicochemical. Particulars: 10 μM; no detergent; 25°C; n=5. The protocol: Dynamic light scattering (DLS) experiments have been performed with compounds […]
baseline control and positive control (miconazole at 100 μM) were included. The radius data […]
compound in the absence of detergent.
DLS data (Malvern Nano ZS). Each sample (150 μl) was measured 5 times in a low volume disposable sizing cuvette at 25°C using 173º non-invasive backscatter (NIBS). […]

In the next series the target is T1, TNF (L57F) (Homo sapiens, UniProt P01375, L133F).
T1 construct: Human TNF (CID2043, UniProt P01375 residues 77–233); 6XHis-Smt3 (N, cleaved yes); host or cells: E. coli
T1 sequence (P01375 77-233 L133F): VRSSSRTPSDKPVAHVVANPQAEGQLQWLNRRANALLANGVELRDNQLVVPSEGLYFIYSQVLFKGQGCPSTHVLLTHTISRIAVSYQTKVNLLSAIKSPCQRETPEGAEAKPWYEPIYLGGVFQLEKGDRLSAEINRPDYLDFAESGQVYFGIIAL
In words: HEK reporter gene assay, L57F TNF. The format is cell-based. Particulars: 10 pM L57F TNF; HEK NFκΒ reporter. The protocol: Stimulation of HEK-293 cells by TNF leads to activation of the NF-κB pathway. The HEK-Blue^TM CD40L SEAP (secreted embryonic alkaline phosphatase) reporter cell line used to determine TNF activity (InvivoGen, #hkb-CD40, cells were described as mycoplasma free when purchased and were tested using Mycoalert [Lonza] after each batch of assay vial preparation). Compounds were titrated in DMSO and pre-incubated with TNF at a concentration giving half maximal response (10 pM for human or 20 pM for mouse) or the anti-human TNFR1 agonist antibody (R&D Systems. #AF 225) for 1 h. Cells were added to the compound/stimulus mixture and further incubated for 18 h. SEAP was measured using the colorimetric substrate HEK-Blue Detect^TM or QUANTI-Blue^TM from InvivoGen. Percentage inhibitions for compound dilutions were calculated between a DMSO control and maximum inhibition (by excess anti-TNF biologic, or NF-κB inhibitor–TPCA-1 [Tocris #2559, R&D Systems]). The IC50 was determined as the point of inflexion between the fitted minimum and maximum of the compound dose response curve, calculated using 4PL fitted curve. Mean IC50s are reported as a mean of at least two experiments. Dose response curves for TNF and the anti-human TNFR1 agonist antibody are shown in Supplementary Fig. 9. […]
In this assay reduction is luminescence is due to cell killing by TNF and inhibition causes increased luminescence. […]
A general note: A reporter such as luciferase makes a cellular process visible.

The next series in a line: Mouse free fraction. The format is in vitro ADME. Particulars: read-out: Mouse free fraction (Fu).
In a further series the test system is human TNF superfamily. In words: Thermal denaturation, human TNF superfamily. The format is binding. Particulars: 100 µM compound, 0.1 mg/mL sample; single experiment. As for the experimental part: A fluorescence probed thermal denaturation assay was performed to assess the effect of the compounds on the thermal stability of TNF (or other members of the TNF family) as a measure of compound binding. The reaction mixture contained 5 µL of 30× SYPRO® Orange dye (Invitrogen) and 5 µL of TNF (at 1 mg/mL), 37.5 μL PBS, pH 7.4 and 2.5 μL of compound (at 2 mM in DMSO). The mixture (10 µL) was dispensed in quadruplicate into a 384 PCR optical well plate and was run on a 7900HT Fast Real-Time PCR System ([…]). The PCR System heating device was set at 20 °C to 99 °C with a ramp rate of 1.1 °C min^−1; fluorescence changes in the wells were monitored by a CCD device. The fluorescence intensity increase was plotted as a function of temperature and the Tm calculated as the midpoint of this denaturation curve (determined as the point of inflection).
Compound based thermal stability increase (oC)
100 µM compound 0.1 mg/mL sample […]
compared to human TNF. Human proteins were provided through a collaboration with Beryllium. Data from a single experiment. […]
compared to mouse TNF. Mouse proteins were purchased from R&D Systems. (Note: No Tm for Lymphotoxin (LTa) was detected in this assay making a change in Tm unmeasurable).
Data from a single experiment.
(also on this page, place not known: 16.0Thermal 10Thermal stability difference (oC) stability increase (oC))

For series [2], the system named is zymosan-induced neutrophil recruitment. In words: Zymosan induced neutrophil recruitment in vivo. More on the design: species or system mouse. Particulars: for percent over bar (inhibition of zymosan-induced neutrophil recruitment): Zymosan 1 µg per mouse i.p.; for CD45+ GR-1+ cells/mL in the peritoneal cavity: zymosan, individual mice. As for the experimental part:
Zymosan (R&D Systems) was administered by intraperitoneal injection at a concentration of 1 µg per mouse in PBS (100 µL). […] Four hours after the zymosan challenge, mice were sacrificed and the peritoneal cavity lavaged with 3 mL of FACS buffer. An aliquot (0.3 mL) of lavage fluid was used to assess the number of CD45^+GR1^+ cells by flow cytometry. Briefly, the cells were treated with ACK lysis buffer, washed and suspended in FACS buffer prior to staining with FITC anti-mouse CD45 and PE anti-mouse GR1 (BD Biosciences). Data are shown as mean ± standard error of the number of CD45^+GR-1^+ cells. Statistical significance (*p < 0.05, **p < 0.01, ***p < 0.001 and ****p < 0.0001) was determined using one-way ANOVA with Dunnett’s multiple comparison test.

In a further series the target is TNF (Homo sapiens, UniProt P01375). In words: TNF L929 cytotoxicity assay, human TNF. More on the design: stabilise an asymmetrical form of the soluble TNF trimer. In kind it is cell-based. The protocol:
TNF (human or mouse) kills L929 cells which have been compromised by incubation with a sub-lethal concentration of actinomycin D, and this effect is inhibited with TNF biologics. Compounds were titrated in DMSO, and then pre-incubated with human or mouse TNF for 1 h. […] L929 cytotoxicity was measured by the addition of CellTitreGlo (Promega). Luminescence was measured after an incubation of at least 20 min in the dark. Percentage inhibition was calculated between unstimulated wells (maximum signal), and wells with TNF, DMSO and actinomycin D (minimum signal). The IC50 was calculated as the point of inflexion for a 4PL fitted curve. Mean IC50s are reported as a mean of at least two experiments.

From publication PMC6923382, “Small molecules that inhibit TNF signalling by stabilising an asymmetric form of the trimer” (Nature Communications, 2019) come the findings set out here.

Structures are written as SMILES. Where “and” joins values, the source holds several entries; their conditions need not be identical. Equal values may be shown once. Entries after “also recorded” stand apart in the source; their conditions may differ.

Chain of TNF (P01375 77-233 limits assumed): as the sequence (P01375 77-233 L133F) above, with F57L counted along it

`Cc1ccc(C)c(Cn2c(C(O)c3ccncc3)nc3ccc(-c4cnn(C)c4)cc32)c1` (stereo not shown) [UCB-9260]: the “colloidal aggregation (DLS radius)” value in series [1] was “no evidence of colloidal aggregation”. In addition, at TNF (L57F), the “inhibition of L57F TNF” value is recorded as “did not inhibit; also recorded: no activity”. Also, the fraction unbound in the series “Mouse free fraction” was determined as 0.024. In the series with human TNF superfamily, the “change in Tm of other human TNF superfamily members” value was “negligible effect; also recorded: No other protein tested showed a significant change in Tm”. The “percent over bar (inhibition of zymosan-induced neutrophil recruitment)” value in series [2] (10 mg/kg p.o., 4 hours, mean ± s.e.) was 11±14%; in series [2] (30 mg/kg p.o.), 10±16%; in series [2] (100 mg/kg p.o.), 51±10%; in series [2] (300 mg/kg p.o.), 64±4%. For the same compound, the “CD45+ GR-1+ cells/mL in the peritoneal cavity” value is 195599.4 cells/mL and 255505.0 cells/mL and 196418.3 cells/mL and 192743.4 cells/mL and 219374.0 cells/mL and 134444.4 cells/mL and 127176.3 cells/mL and 228610.3 cells/mL in series [2] (10mg/kg); 308000.0 cells/mL and 169293.1 cells/mL and 102620.5 cells/mL and 226129.3 cells/mL and 167710.1 cells/mL and 175546.4 cells/mL and 66491.2 cells/mL and 345608.1 cells/mL in series [2] (30mg/kg); 80477.6 cells/mL and 108548.6 cells/mL and 137240.9 cells/mL and 57696.4 cells/mL and 231185.2 cells/mL and 83347.1 cells/mL and 39698.9 cells/mL and 112119.6 cells/mL in series [2] (100mg/kg); 106121.8 cells/mL and 78357.0 cells/mL and 70745.1 cells/mL and 93070.9 cells/mL and 117333.3 cells/mL and 57439.3 cells/mL and 69649.3 cells/mL and 44069.8 cells/mL in series [2] (300mg/kg). The Luminescence units at TNF (compound -logM 4.6) is 12619 Luminescence units; on TNF (compound -logM 5.08), 13471 Luminescence units; on TNF (compound -logM 5.56) it was 13691 Luminescence units; at TNF (compound -logM 6.03), 12384 Luminescence units; at TNF (compound -logM 6.51) it was 8197 Luminescence units; on TNF (compound -logM 6.99), 7043 Luminescence units. In addition, the Luminescence units at TNF (compound -logM 7.46) was determined as 6740 Luminescence units; on TNF (compound -logM 7.94), 4803 Luminescence units; at TNF (compound -logM 8.42), 3698 Luminescence units; on TNF (compound -logM 8.9), 3202 Luminescence units.
